Assay results from patent US6962933B1, “Method for inhibiting p38 MAP kinase or TNF-α production using a 1,3-thiazole” (Takeda Pharmaceutical Company Limited, priority 1999, dated 2005).

| SMILES | melting point |
| --- | --- |
| CNc1nc(-c2ccc3c(c2)CCC3)c(-c2cccnc2)s1 [13-74] | 172 to 173 °C |
| Nc1nc(-c2ccccc2)c(-c2ccncc2)s1 [Reference Example 13-15, [4-phenyl-5-(4-pyridyl)-1,3-thiazol-2-yl]amine] | 248 to 250 °C |
| CNc1nc(-c2ccccc2)c(-c2ccncc2)s1 [Reference Example 13-47, N-methyl [4-phenyl-5-(4-pyridyl)-1,3-thiazol-2-yl]amine] | 191 to 192 °C |
| CNc1nc(-c2ccc(F)cc2)c(-c2ccncc2)s1 [Reference Example 13-69, N-methyl [4-(4-fluorophenyl)-5-(4-pyridyl)-1,3-thiazol-2-yl]amine] | 205 to 206 °C |
| CNc1nc(-c2ccc(Br)cc2)c(-c2ccncc2)s1 [Reference Example 13-71, N-methyl [4-(4-bromophenyl)-5-(4-pyridyl)-1,3-thiazol-2-yl]amine] | 206 to 207 °C |
| CC(=O)Nc1nc(-c2cccc(Cl)c2)c(-c2ccncc2)s1 [Reference Example 23-49, N-[4-(3-chlorophenyl)-5-(4-pyridyl)-1,3-thiazol-2-yl]acetamide] | 290 to 293 °C |
| CCC(=O)Nc1nc(-c2cccc(Cl)c2)c(-c2ccncc2)s1 [Reference Example 23-50, N-[4-(3-chlorophenyl)-5-(4-pyridyl)-1,3-thiazol-2-yl]propionamide] | 289 to 290 °C |
| CC(=O)Nc1nc(-c2cccc(C)c2)c(-c2ccncc2)s1 [Reference Example 23-51, N-[4-(3-methylphenyl)-5-(4-pyridyl)-1,3-thiazol-2-yl]acetamide] | 287 to 289 °C |
| CCC(=O)Nc1nc(-c2cccc(C)c2)c(-c2ccncc2)s1 [Reference Example 23-52, N-[4-(3-methylphenyl)-5-(4-pyridyl)-1,3-thiazol-2-yl]propionamide] | 258 to 260 °C |
| Nc1nc(-c2cccc(Cl)c2)c(-c2ccncc2)s1 [Reference Example 23-59, [4-(3-chlorophenyl)-5-(4-pyridyl)-1,3-thiazol-2-yl]amine] | 256 to 258 °C |
| Nc1nc(-c2ccc(Cl)cc2)c(-c2ccncc2)s1 [Reference Example 23-61, [4-(4-chlorophenyl)-5-(4-pyridyl)-1,3-thiazol-2-yl]amine] | > 300 °C |
| Cc1ccc(-c2nc(N)sc2-c2ccncc2)cc1 [Reference Example 23-62, [4-(4-methylphenyl)-5-(4-pyridyl)-1,3-thiazol-2-yl]amine] | 296 to 298 °C |
| Cc1ccc(-c2nc(N)sc2-c2ccncc2)cc1C [Reference Example 23-125, [4-(3,4-dimethylphenyl)-5-(4-pyridyl)-1,3-thiazol-2-yl]amine] | 248 to 250 °C |
| Cc1cc(C)cc(-c2nc(NC(=O)c3ccncc3)sc2-c2ccncc2)c1 [Reference Example 23-200, N-[4-(3,5-dimethylphenyl)-5-(4-pyridyl)-1,3-thiazol-2-yl]isonicotinamide] | 302 to 304 °C |
| CCCNc1nc(-c2cc(C)cc(C)c2)c(-c2ccncc2)s1 [Reference Example 23-276, N-propyl-[4-(3,5-dimethylphenyl)-5-(4-pyridyl)-1,3-thiazol-2-yl]amine] | 177 to 180 °C |
| CCCCNc1nc(-c2cc(C)cc(C)c2)c(-c2ccncc2)s1 [Reference Example 23-280, N-butyl-[4-(3,5-dimethylphenyl)-5-(4-pyridyl)-1,3-thiazol-2-yl]amine] | 165 to 168 °C |
| Cc1cc(C)cc(-c2nc(NCc3ccccc3)sc2-c2ccncc2)c1 [Reference Example 23-281, N-benzyl-[4-(3,5-dimethylphenyl)-5-(4-pyridyl)-1,3-thiazol-2-yl]amine] | 186 to 188 °C |
| O=S(=O)(Cc1ccc(-c2nc(-c3ccc(F)cc3)c(-c3ccncc3)s2)cc1)Cc1ccc(-c2nc(-c3ccc(F)cc3)c(-c3ccncc3)s2)cc1 [Reference Example 23-313, 4-[4-(4-fluorophenyl)-5-(4-pyridyl)-1,3-thiazol-2-yl]phenylmethylsulfone] | 191 to 194 °C |
| O=S(=O)(Cc1ccc(-c2nc(-c3ccc(Cl)cc3)c(-c3ccncc3)s2)cc1)Cc1ccc(-c2nc(-c3ccc(Cl)cc3)c(-c3ccncc3)s2)cc1 [Reference Example 23-314, 4-[4-(4-chlorophenyl)-5-(4-pyridyl)-1,3-thiazol-2-yl]phenylmethylsulfone] | 202 to 204 °C |
| Cc1ccc(-c2nc(-c3ccc(CSCc4ccc(-c5nc(-c6ccc(C)c(C)c6)c(-c6ccncc6)s5)cc4)cc3)sc2-c2ccncc2)cc1C [Reference Example 23-326, 4-[4-(3,4-dimethylphenyl)-5-(4-pyridyl)-1,3-thiazol-2-yl]phenylmethylsulfide] | 159 to 161 °C |
| Cc1ccc(-c2nc(-c3ccc(C[S+]([O-])Cc4ccc(-c5nc(-c6ccc(C)c(C)c6)c(-c6ccncc6)s5)cc4)cc3)sc2-c2ccncc2)cc1C [Reference Example 23-327, 4-[4-(3,4-dimethylphenyl)-5-(4-pyridyl)-1,3-thiazol-2-yl]phenylmethylsulfoxide] | 161 to 164 °C |
| Cc1ccc(-c2nc(-c3ccc(CS(=O)(=O)Cc4ccc(-c5nc(-c6ccc(C)c(C)c6)c(-c6ccncc6)s5)cc4)cc3)sc2-c2ccncc2)cc1C [Reference Example 23-328, 4-[4-(3,4-dimethylphenyl)-5-(4-pyridyl)-1,3-thiazol-2-yl]phenylmethylsulfone] | 194 to 196 °C |
| Cc1cc(C)cc(-c2nc(NC(=O)c3ccc(C(=O)O)cc3)sc2-c2ccncc2)c1 [Reference Example 23-337, 4-[[[4-(3,5-dimethylphenyl)-5-(4-pyridyl)-1,3-thiazol-2-yl]amino]carbonyl]benzoic acid] | 347 to 349 °C |
| Cc1cc(C)cc(-c2nc(NC(=O)c3cccc(C(=O)O)c3)sc2-c2ccncc2)c1 [Reference Example 23-342, 3-[[[4-(3,5-dimethylphenyl)-5-(4-pyridyl)-1,3-thiazol-2-yl]amino]carbonyl]benzoic acid] | 350 to 353 °C |

The remaining lines, values ahead:

| melting point | SMILES |
| --- | --- |
| 282 to 284 °C | COc1ccc(-c2nc(N)sc2-c2ccncc2)cc1 [Reference Example 13-14, [4-(4-methoxyphenyl)-5-(4-pyridyl)-1,3-thiazol-2-yl]amine] |
| 233 to 234 °C | O=C(Cc1ccccc1)Nc1nc(-c2ccccc2)c(-c2ccncc2)s1 [Reference Example 23-29, 2-phenyl-N-[4-phenyl-5-(4-pyridyl)-1,3-thiazol-2-yl]acetamide] |
| 214 to 216 °C | O=C(CCc1ccccc1)Nc1nc(-c2ccccc2)c(-c2ccncc2)s1 [Reference Example 23-30, 3-phenyl-N-[4-phenyl-5-(4-pyridyl)-1,3-thiazol-2-yl]propionamide] |
| 294 to 297 °C | CC(=O)Nc1nc(-c2ccccc2)c(-c2ccncc2)s1 [Reference Example 23-71, N-[4-phenyl-5-(4-pyridyl)-1,3-thiazol-2-yl]acetamide] |
| 287 to 289 °C | COc1ccc(-c2nc(Nc3ccccc3)sc2-c2ccncc2)cc1 [Reference Example 23-80, N-phenyl-[4-(4-methoxyphenyl)-5-(4-pyridyl)-1,3-thiazol-2-yl]amine] |
| 278 to 281 °C | COc1ccc(-c2nc(NC(=O)c3cccnc3)sc2-c2ccncc2)cc1 [Reference Example 23-101, N-[4-(4-methoxyphenyl)-5-(4-pyridyl)-1,3-thiazol-2-yl]nicotinamide] |
| 295 to 297 °C | COc1ccc(-c2nc(NC(=O)c3ccncc3)sc2-c2ccncc2)cc1 [Reference Example 23-102, N-[4-(4-methoxyphenyl)-5-(4-pyridyl)-1,3-thiazol-2-yl]isonicotinamide] |
| 224 to 226 °C | CCNC(=O)Nc1nc(-c2ccc(OC)cc2)c(-c2ccncc2)s1 [Reference Example 23-156, N-ethyl-N′-[4-(4-methoxyphenyl)-5-(4-pyridyl)-1,3-thiazol-2-yl]urea] |
| 175 to 176 °C | CCNc1nc(-c2ccc(OC)cc2)c(-c2ccncc2)s1 [Reference Example 23-269, N-ethyl-[4-(4-methoxyphenyl)-5-(4-pyridyl)-1,3-thiazol-2-yl]amine] |
| 141 to 142 °C | CCCNc1nc(-c2ccc(OC)cc2)c(-c2ccncc2)s1 [Reference Example 23-290, N-propyl-[4-(4-methoxyphenyl)-5-(4-pyridyl)-1,3-thiazol-2-yl]amine] |
| 161 to 163 °C | COc1ccc(-c2nc(NC(C)C)sc2-c2ccncc2)cc1 [Reference Example 23-291, N-isopropyl-[4-(4-methoxyphenyl)-5-(4-pyridyl)-1,3-thiazol-2-yl]amine] |
| 217 to 219 °C | COc1ccc(-c2nc(NC(=O)Nc3ccccc3)sc2-c2ccncc2)cc1 [Reference Example 23-296, N-[4-(4-methoxyphenyl)-5-(4-pyridyl)-1,3-thiazol-2-yl]-N′-phenylurea] |
| 332 to 335 °C | COc1ccc(-c2nc(NC(=O)c3ccc(C(=O)O)cc3)sc2-c2ccncc2)cc1 [Reference Example 23-299, 4-[[[4-(4-methoxyphenyl)-5-(4-pyridyl)-1,3-thiazol-2-yl]amino]carbonyl]benzoic acid] |
| 127 to 128 °C | COc1ccc(-c2nc(-c3ccc(SC)cc3)sc2-c2ccncc2)cc1 [Reference Example 23-300, methyl 4-[2-[4-(methylthio)phenyl]-5-(4-pyridyl)-1,3-thiazol-4-yl]phenyl ether] |
| 167 to 169 °C | Cc1cc(C)cc(-c2nc(NC(=O)Nc3ccccc3)sc2-c2ccncc2)c1 [Reference Example 23-315, N-[4-(3,5-dimethylphenyl)-5-(4-pyridyl)-1,3-thiazol-2-yl]-N′-phenylurea] |
| 221 to 222 °C | COc1ccc(-c2nc(NC(=O)C(C)O)sc2-c2ccncc2)cc1 (centres unmarked) [Reference Example 23-325, 2-hydroxy-N-[4-(4-methoxyphenyl)-5-(4-pyridyl)-1,3-thiazol-2-yl]propionamide] |
| 228 to 230 °C | COc1ccc(-c2nc(NC(=O)CO)sc2-c2ccncc2)cc1 [Reference Example 23-329, 2-hydroxy-N-[4-(4-methoxyphenyl)-5-(4-pyridyl)-1,3-thiazol-2-yl]acetamide] |
